The text below walks through data of ChEMBL document CHEMBL4725227, “Dual-Target Inhibitors Based on HDACs: Novel Antitumor Agents for Cancer Therapy” (J Med Chem, 2020).

Bounds are passed on as bounds.

In one assay the target is Histone deacetylase 1 (Homo sapiens, UniProt Q13547). In words: Inhibition of HDAC1 (unknown origin).
Assay [1] has as its system MCF7. In words: Cytotoxicity against human MCF7 cells assessed as reduction in cell viability. The format is functional, cell-based.
In the next assay the test system is DU-145. In words: Cytotoxicity against human DU-145 cells assessed as reduction in cell viability. The format is functional, cell-based.
The target in the next assay is Histone deacetylase. In words: Inhibition of HDAC (unknown origin). The assay is classed as protein assay, Homo sapiens.
Assay [2] has as its target Vascular endothelial growth factor receptor 2 (Homo sapiens, UniProt P35968). In words: Inhibition of VGFR2 (unknown origin).
Assay [3] has as its system MCF7. In words: Cytotoxicity against human MCF7 cells assessed as reduction in cell viability by MTT assay. The assay is classed as functional, cell-based. A general note: Tetrazolium assays rely on reduction of a dye to a coloured formazan, in cell work by metabolically active cells.
For assay [4], the target named is Epidermal growth factor receptor (Homo sapiens, UniProt P00533). In words: Inhibition of EGFR (unknown origin).
Chain of Epidermal growth factor receptor (P00533 whole entry): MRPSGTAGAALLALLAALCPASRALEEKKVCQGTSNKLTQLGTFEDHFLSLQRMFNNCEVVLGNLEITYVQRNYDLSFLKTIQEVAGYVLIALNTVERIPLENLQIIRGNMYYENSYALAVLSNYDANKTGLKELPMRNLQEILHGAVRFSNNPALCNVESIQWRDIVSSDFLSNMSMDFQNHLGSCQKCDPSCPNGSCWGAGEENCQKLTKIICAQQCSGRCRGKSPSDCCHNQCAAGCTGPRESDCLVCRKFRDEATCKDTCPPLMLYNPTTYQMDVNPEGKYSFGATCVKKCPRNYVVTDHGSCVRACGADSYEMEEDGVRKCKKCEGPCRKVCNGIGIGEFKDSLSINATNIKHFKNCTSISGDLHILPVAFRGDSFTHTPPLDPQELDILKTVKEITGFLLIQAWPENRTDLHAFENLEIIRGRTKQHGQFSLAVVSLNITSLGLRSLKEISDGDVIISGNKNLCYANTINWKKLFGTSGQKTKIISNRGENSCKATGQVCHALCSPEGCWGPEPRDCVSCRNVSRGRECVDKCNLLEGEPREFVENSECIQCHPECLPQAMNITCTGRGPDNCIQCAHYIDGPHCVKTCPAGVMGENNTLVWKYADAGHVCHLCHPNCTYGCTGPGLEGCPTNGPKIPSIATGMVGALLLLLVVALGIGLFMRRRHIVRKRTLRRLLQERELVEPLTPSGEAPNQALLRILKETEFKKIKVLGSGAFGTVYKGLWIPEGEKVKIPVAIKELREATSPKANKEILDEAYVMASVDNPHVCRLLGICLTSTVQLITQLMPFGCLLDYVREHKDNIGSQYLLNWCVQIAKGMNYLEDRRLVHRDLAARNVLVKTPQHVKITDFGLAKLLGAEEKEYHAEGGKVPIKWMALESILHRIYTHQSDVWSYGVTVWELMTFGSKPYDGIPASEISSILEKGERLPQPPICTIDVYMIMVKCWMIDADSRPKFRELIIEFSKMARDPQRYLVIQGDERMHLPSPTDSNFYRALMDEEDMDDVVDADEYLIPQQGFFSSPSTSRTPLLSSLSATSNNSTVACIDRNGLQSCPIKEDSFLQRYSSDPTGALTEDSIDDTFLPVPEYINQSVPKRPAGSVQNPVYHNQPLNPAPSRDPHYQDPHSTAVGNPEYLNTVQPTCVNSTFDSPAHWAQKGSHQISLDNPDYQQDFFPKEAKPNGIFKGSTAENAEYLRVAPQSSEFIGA
For another assay, the system named is MDA-MB-231. In words: Cytotoxicity against human MDA-MB-231 cells assessed as reduction in cell viability by MTT assay. The assay is classed as functional, cell-based.
The next assay deals with MDA-MB-468. In words: Cytotoxicity against human MDA-MB-468 cells assessed as reduction in cell viability by MTT assay. The format is functional, cell-based.
The subject of a further assay is HeLa. In words: Cytotoxicity against human HeLa cells assessed as reduction in cell viability by MTT assay. The format is functional, cell-based.
For the next assay, the system named is HT-29. In words: Cytotoxicity against human HT-29 cells assessed as reduction in cell viability by MTT assay. The assay is classed as functional, cell-based.
A further assay deals with KG-1. In words: Cytotoxicity against human KG-1 cells assessed as reduction in cell viability by MTT assay. The assay is classed as functional, cell-based.
Assay [5] deals with MCF7. In words: Cytotoxicity against human MCF7 cells assessed as reduction in cell viability in presence of SAHA by MTT assay. The format is functional, cell-based.
Another assay deals with A549. In words: Cytotoxicity against human A549 cells assessed as reduction in cell viability by MTT assay.
Another assay has as its system A-431. In words: Cytotoxicity against human A-431 cells assessed as reduction in cell viability by MTT assay. The assay is classed as functional, cell-based.

Chain of Histone deacetylase 1 (Q13547 whole entry): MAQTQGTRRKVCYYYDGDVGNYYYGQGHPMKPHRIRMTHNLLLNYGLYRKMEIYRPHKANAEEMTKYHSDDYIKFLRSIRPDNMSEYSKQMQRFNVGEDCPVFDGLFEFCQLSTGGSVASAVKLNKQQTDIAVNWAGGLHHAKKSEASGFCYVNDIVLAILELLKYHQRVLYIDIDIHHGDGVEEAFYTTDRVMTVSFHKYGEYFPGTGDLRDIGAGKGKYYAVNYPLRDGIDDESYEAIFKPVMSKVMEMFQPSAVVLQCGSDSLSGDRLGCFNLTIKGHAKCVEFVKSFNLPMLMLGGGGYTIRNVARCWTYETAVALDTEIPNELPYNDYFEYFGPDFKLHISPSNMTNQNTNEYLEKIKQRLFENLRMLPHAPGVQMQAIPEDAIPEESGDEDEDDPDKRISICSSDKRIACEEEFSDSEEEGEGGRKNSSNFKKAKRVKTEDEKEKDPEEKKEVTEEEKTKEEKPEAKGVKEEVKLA
Chain of Vascular endothelial growth factor receptor 2 (P35968 whole entry): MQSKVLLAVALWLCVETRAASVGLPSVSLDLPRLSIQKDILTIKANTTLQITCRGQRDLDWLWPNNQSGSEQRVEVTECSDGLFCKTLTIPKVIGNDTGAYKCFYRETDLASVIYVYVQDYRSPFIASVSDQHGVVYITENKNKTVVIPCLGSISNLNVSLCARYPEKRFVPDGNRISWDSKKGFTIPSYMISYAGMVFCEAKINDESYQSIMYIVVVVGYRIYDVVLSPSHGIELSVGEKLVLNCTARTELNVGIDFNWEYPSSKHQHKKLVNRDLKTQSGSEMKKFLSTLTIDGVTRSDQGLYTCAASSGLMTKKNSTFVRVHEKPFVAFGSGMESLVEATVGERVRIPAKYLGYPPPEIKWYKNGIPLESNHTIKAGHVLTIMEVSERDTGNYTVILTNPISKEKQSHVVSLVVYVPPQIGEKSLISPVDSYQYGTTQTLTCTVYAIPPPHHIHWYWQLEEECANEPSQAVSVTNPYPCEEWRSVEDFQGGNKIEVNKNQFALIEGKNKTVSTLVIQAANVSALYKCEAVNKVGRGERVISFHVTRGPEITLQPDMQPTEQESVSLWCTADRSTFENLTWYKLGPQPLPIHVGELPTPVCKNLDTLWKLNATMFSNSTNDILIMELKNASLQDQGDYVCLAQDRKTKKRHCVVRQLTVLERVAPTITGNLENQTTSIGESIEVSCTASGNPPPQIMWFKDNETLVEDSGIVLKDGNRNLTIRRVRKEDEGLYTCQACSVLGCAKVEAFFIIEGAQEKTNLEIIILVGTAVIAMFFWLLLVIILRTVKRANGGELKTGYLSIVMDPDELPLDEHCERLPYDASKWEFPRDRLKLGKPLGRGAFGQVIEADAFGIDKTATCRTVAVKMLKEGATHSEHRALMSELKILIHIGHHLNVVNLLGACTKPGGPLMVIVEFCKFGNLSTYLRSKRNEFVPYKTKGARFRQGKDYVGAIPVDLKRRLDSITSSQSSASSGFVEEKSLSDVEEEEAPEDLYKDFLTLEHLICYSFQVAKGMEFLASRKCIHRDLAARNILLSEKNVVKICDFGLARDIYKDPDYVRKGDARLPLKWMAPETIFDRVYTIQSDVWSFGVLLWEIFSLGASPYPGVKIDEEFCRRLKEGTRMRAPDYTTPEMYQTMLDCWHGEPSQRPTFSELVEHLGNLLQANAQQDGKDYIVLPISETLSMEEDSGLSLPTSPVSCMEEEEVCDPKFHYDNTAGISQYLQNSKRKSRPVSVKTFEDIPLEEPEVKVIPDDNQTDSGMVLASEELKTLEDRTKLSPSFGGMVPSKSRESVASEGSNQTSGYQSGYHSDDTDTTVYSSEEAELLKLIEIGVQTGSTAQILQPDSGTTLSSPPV

On to `Cc1ccccc1OS(=O)(=O)C1CC2OC1C(c1ccc(NC(=O)CCCCCCC(=O)NO)cc1)=C2c1ccc(O)cc1` (stereo unspecified), for which the results for the half-inhibitory concentration (IC50) against Histone deacetylase 1, in the assay with MCF7 [1] and in the assay with DU-145 were 22 nM, 7900 nM and > 100000 nM, respectively.
With `COc1cc2ncnc(Nc3ccc(Br)cc3)c2cc1OCCCCCC(=O)NO`, the IC50 at Histone deacetylase came to 2.2 nM; in assay [2], 74 nM; with MCF7 [3] it was 850 nM.
On to `Cn1cc(-c2ccnc(Nc3ccc(C(=O)NCCCCCCC(=O)NO)cc3)n2)c2ccccc21`, for which the IC50 result was “<= 1 uM” against Histone deacetylase; 5700 nM in [4]; 600 nM with MDA-MB-231; 230 nM in the assay with MDA-MB-468; 1850 nM in the assay with HeLa; 790 nM in the assay on HT-29. For the same compound, the IC50 with KG-1 came out at 240 nM.
For the compound `C#Cc1cccc(Nc2ncnc3cc(OCCOC)c(OCCOC)cc23)c1` [ERLOTINIB], the results for the IC50 in the assay with MCF7 [5], in the assay with A549 and in the assay on A-431 were 2700 nM, 11800 nM and 1410 nM, respectively.

By IC50 is commonly meant the midpoint of a concentration-inhibition curve.
